From ChEMBL document CHEMBL5728092, “Benzimidazole derivatives as modulators of ROR-gamma” (2020)

molecular target: T1, Nuclear receptor ROR-gamma (Homo sapiens, UniProt P51449); experiment: Binding Assay : Compounds described herein were tested for ability to bind to RORγ in a cell-free competition assay with commercially available radio-ligand (RL), 25-hydroxy [26,27-3H]-cholesterol (PerkinElmer, Cat. #NET674250UC), for a ligand binding site on a recombinant RORγ Ligand Binding Domain (LBD) protein expressed as a 6×His-Glutathione-S-Transferase (GST) fusion. The assay was performed in 96-well SPA plates (PerkinElmer, Cat. #1450-401) in 50 mM HEPES buffer, pH 7.4, containing 150 mM NaCl, 5 mM MgCl2, 10% (v/v) glycerol, 2 mM CHAPS, 0.5 mM β-octylglucopyranoside and 5 mM DTT. Tested compounds were dissolved in DMSO, and semi-log (3.162×) serial dilutions of the compounds were prepared in the same solvent. Two μL of the DMSO solutions were mixed with 28 μL of 8.6 nM 25-hydroxy [26,27-3H]-cholesterol and 50 μL of 24 nM RORγ LBD. The plate was shaken at 700 rpm for 20 min and incubated for 10 min at rt, after which 40 μL of poly-Lys YSi SPA beads (PerkinElmer, Cat. #RPNQ0010) were added to achieve […] of the beads per well. The plate was incubated on an orbital shaker for 20 min and then for 10 min without agitation at rt. SPA signal for tritium beta radiation was registered on PerkinElmer Microbeta plate reader. Percent inhibition values were calculated based on the high signal obtained with DMSO control and the low signal observed with 10 μM standard RORγ inverse agonist T0901317 (SigmaAldrich, Cat. #T2320). The percent inhibition vs. concentration data were fit into a four-parameter model, and IC50 values were calculated from the fit as the concentrations corresponding to the inflection points on the dose-response curves.
T1 sequence (P51449 whole entry): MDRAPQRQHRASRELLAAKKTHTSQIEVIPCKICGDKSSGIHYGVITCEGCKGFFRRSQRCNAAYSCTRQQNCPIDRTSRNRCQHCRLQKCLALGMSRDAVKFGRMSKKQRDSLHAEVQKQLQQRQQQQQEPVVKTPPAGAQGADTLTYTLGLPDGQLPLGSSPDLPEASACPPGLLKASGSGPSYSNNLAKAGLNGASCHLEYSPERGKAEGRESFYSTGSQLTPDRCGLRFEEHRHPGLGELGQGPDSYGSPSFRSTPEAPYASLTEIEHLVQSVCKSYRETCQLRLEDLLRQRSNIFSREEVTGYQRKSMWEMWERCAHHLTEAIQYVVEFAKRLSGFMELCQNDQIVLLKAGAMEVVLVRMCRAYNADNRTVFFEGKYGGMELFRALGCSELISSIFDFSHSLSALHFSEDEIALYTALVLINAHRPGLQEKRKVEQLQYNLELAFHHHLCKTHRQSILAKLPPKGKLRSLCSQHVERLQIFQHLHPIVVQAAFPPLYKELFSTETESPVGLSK

| Ki [nM] | Structure (SMILES) |
| --- | --- |
| < 100 | CCS(=O)(=O)c1ccc([C@H](CO)NC(=O)c2ccc3c(c2)nc(C2CC2)n3Cc2cccc3c2OC(F)(F)O3)cc1 |
| < 100 | CCS(=O)(=O)c1ccc(CNC(=O)c2ccc3c(c2)nc(C(F)(F)F)n3Cc2cccc3c2OC(F)(F)O3)[n+]([O-])c1 |
| < 100 | CCS(=O)(=O)c1ccc([C@H](CO)NC(=O)c2ccc3c(c2)nc(C2(F)CCC2)n3Cc2cccc3c2OC(F)(F)O3)cc1 |
